From ChEMBL document CHEMBL3872260, “Influence of chain length on the activity of tripeptidomimetic antagonists for CXC chemokine receptor 4 (CXCR4)” (Bioorg Med Chem, 2017)

Molecular target: C-X-C chemokine receptor type 4 (Homo sapiens, UniProt P61073)
Assay: Antagonist activity at wild-type human CXCR4 expressed in COS7 cells co-expressing chimeric galphai assessed as inhibition of CXCL12-induced [3H]inositol-phosphate accumulation measured after 90 mins in presence of Myo-[2-3H]-inositol by scintillation proximity assay
Assay type: functional, cell-based, COS-7

C-X-C chemokine receptor type 4, sequence (P61073 whole entry): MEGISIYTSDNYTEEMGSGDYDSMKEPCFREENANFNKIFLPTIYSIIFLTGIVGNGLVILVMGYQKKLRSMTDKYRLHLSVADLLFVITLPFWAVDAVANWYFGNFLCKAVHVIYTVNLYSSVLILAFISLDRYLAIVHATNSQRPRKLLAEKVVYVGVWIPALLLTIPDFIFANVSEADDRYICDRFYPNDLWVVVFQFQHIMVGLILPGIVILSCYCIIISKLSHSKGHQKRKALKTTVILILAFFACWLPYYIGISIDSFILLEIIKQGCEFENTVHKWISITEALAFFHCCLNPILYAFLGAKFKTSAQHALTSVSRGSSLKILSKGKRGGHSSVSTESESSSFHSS

SMILES	EC50 (read-out: EC50)	EC50 (read-out: pEC50 (converted))
N=C(N)NCCC[C@H]1C(=O)N(CCc2ccc3ccccc3c2)C[C@@H]2SC[C@H](CCNC(=N)N)C(=O)N21	> 100 µM	< 100 µM
N=C(N)NCCCC[C@H]1C(=O)N(CCc2ccc3ccccc3c2)C[C@H]2SC[C@@H](CCNC(=N)N)C(=O)N21	> 100 µM	< 100 µM
N=C(N)NCCCC[C@H]1C(=O)N(CCc2ccc3ccccc3c2)C[C@@H]2SC[C@H](CCNC(=N)N)C(=O)N21	> 100 µM	< 100 µM
N=C(N)NCCCC[C@H]1C(=O)N(CCc2ccc3ccccc3c2)C[C@@H]2SC[C@H](CCCNC(=N)N)C(=O)N21	> 100 µM	–
N=C(N)NCCCC[C@H]1CS[C@H]2CN(CCc3ccc4ccccc4c3)C(=O)[C@H](CCCNC(=N)N)N2C1=O	> 100 µM	< 100 µM
N=C(N)NCCCC1CSC2CN(Cc3ccc4ccccc4c3)C(=O)[C@H](CCCNC(=N)N)N2C1=O (mixture of isomers)	> 100 µM	< 100 µM
N=C(N)NCCCC1CSC2CN(Cc3ccc4ccccc4c3Br)C(=O)[C@H](CCCNC(=N)N)N2C1=O (mixture of isomers)	61 µM	–

Further lines, results first:

EC50 (read-out: EC50)	EC50 (read-out: pEC50 (converted))	SMILES
> 100 µM	< 100 µM	N=C(N)NCCCC[C@@H]1CS[C@@H]2CN(CCc3ccc4ccccc4c3)C(=O)[C@H](CCCNC(=N)N)N2C1=O
> 100 µM	< 100 µM	N=C(N)NCCCC[C@H]1C(=O)N(CCc2ccc3ccccc3c2)C[C@H]2SC[C@@H](CCCNC(=N)N)C(=O)N21
> 100 µM	–	N=C(N)NCCC[C@H]1C(=O)N(CCc2ccc3ccccc3c2)C[C@H]2SC[C@@H](CCNC(=N)N)C(=O)N21
> 100 µM	–	N=C(N)NCCCC1CSC2CN(Cc3cccc4ccccc34)C(=O)[C@H](CCCNC(=N)N)N2C1=O (mixture of isomers)
